From US20080039438A1, “1B-Methylcarbapenem Derivative and Process for the Preparation Thereof” (Korea Institute of Science and Technology, priority 2004, published 2008)
In brackets after ≈: the same amount, converted by molar mass.

Columns and labels:
Type in all cases: cell-based
Streptococcus pneumoniae = experiment: MIC against clinically isolated aerobic Gram-positive strains; conditions: 22 strains
[1] = system: Methicillin-sensitive Staphylococcus aureus; experiment: as above; conditions: 33 strains
Staphylococcus coagulase = experiment: as above; conditions: Staphylococcus
Morganella morganii = experiment: MIC against clinically isolated aerobic Gram-negative strains; conditions: 15 strains
Clostridium difficile = experiment: MIC against clinically isolated anaerobic Gram-positive strains; conditions: 15 strains
Method: The in vitro antibacterial activities of the sodium 3-carboxylate compound of the present invention prepared in the above Example were measured against standard strains (Table 1), clinically isolated aerobic Gram-positive strains (Table 2), clinically isolated aerobic Gram-negative strains (Table 3), clinically isolated anaerobic Gram-positive strains (Table 4) and clinically isolated anaerobic Gram-negative strains (Table 5) using Gram-positive bacteria such as Streptococcus and Staphylococcus, Gram-negative bacteria such as Escherichia, Salmonella, Krebsiella and Enterobacter. Imipenem (IPM), meropenem (MPM) and ertapenem (EPM) were used as control groups.
The results are shown in Tables 1 to 5, and MIC50 and MIC90 represent the concentrations at which the test strain's growth was inhibited to the extents of 50% and 90%, respectively.

Escherichia coli = experiment: MIC against clinically isolated aerobic Gram-negative strains; conditions: 30 strains
Enterobacter aerogenes = experiment: as above; conditions: 14 strains
Moraxella catarrhalis = experiment: as above; conditions: 24 strains
Citrobacter freundii = experiment: as above; conditions: 14 strains
Klebsiella pneumoniae = experiment: as above; conditions: 30 strains
Clostridium perfringens = experiment: microbe, parasite or virus in culture
Proteus mirabilis = experiment: MIC against clinically isolated aerobic Gram-negative strains; conditions: 15 strains
Proteus vulgaris = experiment: as above; conditions: 15 strains
Bacteroides fragilis = experiment: MIC against clinically isolated anaerobic Gram-negative strains; conditions: 34 strains
[2] = system: Bacteroides thetaiotaomicron; experiment: as above
Klebsiella oxytoca = experiment: MIC against clinically isolated aerobic Gram-negative strains; conditions: 15 strains
Acinetobacter baumannii = experiment: as above; conditions: 30 strains
Bacteroides spp. = experiment: MIC against clinically isolated anaerobic Gram-negative strains; conditions: 11 strains
Streptococcus agalactiae = experiment: MIC against clinically isolated aerobic Gram-positive strains; conditions: 15 strains
Haemophilus influenzae = experiment: MIC against clinically isolated aerobic Gram-negative strains; conditions: 24 strains
Peptostreptococcus spp. = experiment: MIC against clinically isolated anaerobic Gram-positive strains; conditions: 27 strains
Streptococcus pyogenes = experiment: MIC against clinically isolated aerobic Gram-positive strains; conditions: 15 strains
Serratia marcescens = experiment: MIC against clinically isolated aerobic Gram-negative strains; conditions: 14 strains
Enterococcus faecalis = experiment: MIC against clinically isolated aerobic Gram-positive strains; conditions: 30 strains
Providentia sp. = experiment: MIC against clinically isolated aerobic Gram-negative strains; conditions: 13 strains
Enterococcus faecium = experiment: MIC against clinically isolated aerobic Gram-positive strains; conditions: clinically isolated Enterococcus faecium, 29 strains
Enterobacter cloacae = experiment: MIC against clinically isolated aerobic Gram-negative strains; conditions: 29 strains
Pseudomonas aeruginosa = experiment: as above; conditions: 60 strains

SMILES: C[C@@H](O)[C@H]1C(=O)N2C(C(=O)O)=C(S[C@@H]3CN[C@H](C(=O)Nc4cccc(C(=O)O)c4)C3)[C@H](C)[C@H]12 [EPM, ertapenem]
- MIC50 (Streptococcus pneumoniae): 0.5 µg/mL (≈ 1.05 µM)
- MIC90 (Streptococcus pneumoniae): 1 µg/mL (≈ 2.1 µM)
- MIC Range (Streptococcus pneumoniae): 8 to 1000 ng/mL
- MIC50 [1]: 0.25 µg/mL (≈ 0.526 µM)
- MIC90 [1]: 0.25 µg/mL (≈ 0.526 µM)
- MIC Range [1]: 0.25 to 0.5 µg/mL
- MIC50 (Staphylococcus coagulase): 0.25 µg/mL (≈ 0.526 µM)
- MIC90 (Staphylococcus coagulase): 0.5 µg/mL (≈ 1.05 µM)
- MIC50 (Morganella morganii): 8 ng/mL (≈ 0.0168 µM)
- MIC90 (Morganella morganii): 0.03 µg/mL (≈ 0.0631 µM)
- MIC Range (Morganella morganii): 8 to 30 ng/mL
- MIC Range (Clostridium difficile): 4 to 8 µg/mL
- MIC50 (Clostridium difficile; Clostridioides difficile): 4 µg/mL (≈ 8.41 µM)
- MIC90 (Clostridium difficile; Clostridioides difficile): 8 µg/mL (≈ 16.8 µM)
- MIC50 (Escherichia coli): 8 ng/mL (≈ 0.0168 µM)
- MIC90 (Escherichia coli): 0.12 µg/mL (≈ 0.252 µM)
- MIC Range (Escherichia coli): 8 to 4000 ng/mL
- MIC Range (Enterobacter aerogenes): 8 to 500 ng/mL
- MIC50 (Enterobacter aerogenes; Klebsiella aerogenes): 0.06 µg/mL (≈ 0.126 µM)
- MIC90 (Enterobacter aerogenes; Klebsiella aerogenes): 0.5 µg/mL (≈ 1.05 µM)
- MIC50 (Moraxella catarrhalis): 0.015 µg/mL (≈ 0.0315 µM)
- MIC90 (Moraxella catarrhalis): 0.03 µg/mL (≈ 0.0631 µM)
- MIC Range (Moraxella catarrhalis): 8 to 120 ng/mL
- MIC50 (Citrobacter freundii): 8 ng/mL (≈ 0.0168 µM)
- MIC90 (Citrobacter freundii): 0.25 µg/mL (≈ 0.526 µM)
- MIC Range (Citrobacter freundii): 8 to 500 ng/mL
- MIC50 (Klebsiella pneumoniae): 0.03 µg/mL (≈ 0.0631 µM)
- MIC90 (Klebsiella pneumoniae): 0.5 µg/mL (≈ 1.05 µM)
- MIC Range (Klebsiella pneumoniae): 8 to 1000 ng/mL
- MIC50 (Clostridium perfringens; Clostridium perfringens): 0.06 µg/mL (≈ 0.126 µM)
- MIC90 (Clostridium perfringens; Clostridium perfringens): 0.12 µg/mL (≈ 0.252 µM)
- MIC Range (Clostridium perfringens; clinically isolated anaerobic Clostridium perfringens, 13 strains): 0.06 to 0.12 µg/mL
- MIC50 (Proteus mirabilis): 8 ng/mL (≈ 0.0168 µM)
- MIC90 (Proteus mirabilis): 0.015 µg/mL (≈ 0.0315 µM)
- MIC Range (Proteus mirabilis): 8 to 15 ng/mL
- MIC50 (Proteus vulgaris): 0.015 µg/mL (≈ 0.0315 µM)
- MIC90 (Proteus vulgaris): 0.015 µg/mL (≈ 0.0315 µM)
- MIC Range (Proteus vulgaris): 8 to 30 ng/mL
- MIC50 (Bacteroides fragilis): 0.25 µg/mL (≈ 0.526 µM)
- MIC90 (Bacteroides fragilis): 1 µg/mL (≈ 2.1 µM)
- MIC Range (Bacteroides fragilis): 0.12 to 4 µg/mL
- MIC50 ([2]; Bacteroides thetaiotaomicron): 2 µg/mL (≈ 4.21 µM)
- MIC90 ([2]; Bacteroides thetaiotaomicron): 2 µg/mL (≈ 4.21 µM)
- MIC Range ([2]; clinically isolated anaerobic Bacteroides thetaiotaomicron, 15 strains): 0.25 to 8 µg/mL
- MIC50 (Klebsiella oxytoca): 8 ng/mL (≈ 0.0168 µM)
- MIC90 (Klebsiella oxytoca): 8 ng/mL (≈ 0.0168 µM)
- MIC Range (Klebsiella oxytoca): 8 to 250 ng/mL
- MIC50 (Acinetobacter baumannii): 8 µg/mL (≈ 16.8 µM)
- MIC90 (Acinetobacter baumannii): 64 µg/mL (≈ 135 µM)
- MIC Range (Acinetobacter baumannii): 4 to 128 µg/mL
- MIC50 (Bacteroides spp.): 1 µg/mL (≈ 2.1 µM)
- MIC90 (Bacteroides spp.): 2 µg/mL (≈ 4.21 µM)
- MIC Range (Bacteroides spp.): 0.5 to 2 µg/mL
- MIC50 (Streptococcus agalactiae): 0.06 µg/mL (≈ 0.126 µM)
- MIC90 (Streptococcus agalactiae): 0.06 µg/mL (≈ 0.126 µM)
- MIC Range (Streptococcus agalactiae): 0.03 to 0.06 µg/mL
- MIC50 (Haemophilus influenzae): 0.12 µg/mL (≈ 0.252 µM)
- MIC90 (Haemophilus influenzae): 0.5 µg/mL (≈ 1.05 µM)
- MIC Range (Haemophilus influenzae): 0.12 to 1 µg/mL
- MIC50 (Peptostreptococcus spp.): 0.12 µg/mL (≈ 0.252 µM)
- MIC90 (Peptostreptococcus spp.): 4 µg/mL (≈ 8.41 µM)
- MIC Range (Peptostreptococcus spp.): 0.06 to 4 µg/mL
- MIC50 (Streptococcus pyogenes): 0.15 µg/mL (≈ 0.315 µM)
- MIC90 (Streptococcus pyogenes): 0.15 µg/mL (≈ 0.315 µM)
- MIC Range (Streptococcus pyogenes): 8 to 15 ng/mL
- MIC50 (Serratia marcescens): 0.06 µg/mL (≈ 0.126 µM)
- MIC90 (Serratia marcescens): 16 µg/mL (≈ 33.6 µM)
- MIC Range (Serratia marcescens): 0.015 to 16 µg/mL
- MIC50 (Enterococcus faecalis): 16 µg/mL (≈ 33.6 µM)
- MIC90 (Enterococcus faecalis): 32 µg/mL (≈ 67.3 µM)
- MIC Range (Enterococcus faecalis): 4 to 64 µg/mL
- MIC50 (Providentia sp.): 0.03 µg/mL (≈ 0.0631 µM)
- MIC90 (Providentia sp.): 16 µg/mL (≈ 33.6 µM)
- MIC Range (Providentia sp.): 8 to 16000 ng/mL
- MIC Range (Enterococcus faecium): 32 to 128 µg/mL
- MIC50 (Enterococcus faecium; read-out: MIC50): 128 µg/mL (≈ 269 µM)
- MIC90 (Enterococcus faecium; read-out: MIC90): 128 µg/mL (≈ 269 µM)
- MIC50 (Enterobacter cloacae): 0.12 µg/mL (≈ 0.252 µM)
- MIC90 (Enterobacter cloacae): 2 µg/mL (≈ 4.21 µM)
- MIC Range (Enterobacter cloacae): 0.015 to 2 µg/mL
- MIC50 (Pseudomonas aeruginosa): 32 µg/mL (≈ 67.3 µM)
- MIC90 (Pseudomonas aeruginosa): 128 µg/mL (≈ 269 µM)
- MIC Range (Pseudomonas aeruginosa): 1 to 128 µg/mL
